# Laboratory results: US12577231B2, “Androgen receptor PROTACS” (GlaxoSmithKline Intellectual Property Development Limited, priority 2023, dated 2026)
# Molecular target: T1, wild type androgen receptor (Homo sapiens, UniProt P10275)
# T1 construct: expressed in transfected cells; host or cells: A549, transduced, puromycin selected
# T1 sequence (P10275 1-920): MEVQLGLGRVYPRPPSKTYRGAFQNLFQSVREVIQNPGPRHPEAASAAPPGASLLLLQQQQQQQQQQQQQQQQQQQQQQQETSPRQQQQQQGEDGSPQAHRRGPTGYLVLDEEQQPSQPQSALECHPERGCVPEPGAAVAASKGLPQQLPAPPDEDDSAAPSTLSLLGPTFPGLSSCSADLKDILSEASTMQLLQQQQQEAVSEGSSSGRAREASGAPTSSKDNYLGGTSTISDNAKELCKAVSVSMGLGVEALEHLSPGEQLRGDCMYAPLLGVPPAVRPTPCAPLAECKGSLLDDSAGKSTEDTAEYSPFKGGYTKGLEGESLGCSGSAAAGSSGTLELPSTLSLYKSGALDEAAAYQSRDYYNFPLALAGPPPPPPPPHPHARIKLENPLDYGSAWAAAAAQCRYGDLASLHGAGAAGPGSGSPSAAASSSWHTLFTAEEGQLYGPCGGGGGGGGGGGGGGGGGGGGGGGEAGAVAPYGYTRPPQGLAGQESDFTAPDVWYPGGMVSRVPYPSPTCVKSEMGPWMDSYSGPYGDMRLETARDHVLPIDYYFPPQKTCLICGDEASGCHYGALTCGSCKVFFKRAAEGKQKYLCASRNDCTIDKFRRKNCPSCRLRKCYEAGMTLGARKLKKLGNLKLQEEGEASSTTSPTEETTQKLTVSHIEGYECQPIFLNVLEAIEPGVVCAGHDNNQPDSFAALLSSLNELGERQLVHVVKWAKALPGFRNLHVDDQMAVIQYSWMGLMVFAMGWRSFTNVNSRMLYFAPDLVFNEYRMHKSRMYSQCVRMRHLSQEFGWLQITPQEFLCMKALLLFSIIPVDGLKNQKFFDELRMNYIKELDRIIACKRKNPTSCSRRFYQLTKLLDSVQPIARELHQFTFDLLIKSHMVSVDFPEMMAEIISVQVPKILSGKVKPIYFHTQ
# Assay: Degradation of overexpressed Androgen Receptor in A549 cells (HiBiT), wild type
# Assay type: cell-based
# Conditions: A549 cells overexpressing AR WT, cycloheximide, 24 hours
# Experimental: A549 cells were transduced to express wild type androgen receptor and Androgen receptor containing the following mutations (L702H, H875Y W742C W742L F877L, T878A and T878A/H875Y) with HiBiT tags. Transduced cells following puromycin selection were maintained in a humidified incubator (at 37° C. and 5% CO2 in the DMEM medium supplemented with 1% (v/v) Pen/Strep, 1% (v/v) Glutamax and 10% (v/v) FBS. A549 cells expressing each AR construct were detached from plate and counted. Cell suspensions at density 0.2 million per mL were prepared. Cell suspension was supplemented with 100 μg/mL of cycloheximide to block protein synthesis. Cells were preincubated with cycloheximide for 1 hr before seeding. Cells were seeded onto 384-well plate at density of 5,000 in 25 μL per well. A two fold serial dilution of test compounds, starting from 1 μM (row A) in 2-fold serial dilution series across the column using Tecan D300e dispenser. […]
# Nano-Glo HiBiT Lytic reagent was prepared by adding LgBiT protein and Nano-Glo® substrate to lytic buffer pre-equilibrated at room temperature following manufacturer protocol (https://www.promega.co.uk/resources/protocols/technical-manuals/101/nanoglo-luciferase-assay-system-protocol). […] The plates were then centrifuged (100×G, 1 min) and incubated on shaker for 10 mins before taking readings on Pherastar Luminescence microplate reader. […]
smiles,measurement,value
"COc1cc(O[C@H]2C(C)(C)[C@H](NC(=O)c3ccc(N4CCC(CN5CCC(n6ncc7c(N8CCC(=O)NC8=O)nccc76)CC5)CC4)c(F)c3)C2(C)C)ccc1C#N [Example 20, N-((1r,3r)-3-(4-Cyano-3-methoxyphenoxy)-2,2,4,4-tetramethylcyclobutyl)-4-(4-((4-(4-(2,4-dioxotetrahydropyrimidin-1(2H)-yl)-1H-pyrazolo[4,3-c]pyridin-1-yl)piperidin-1-yl)methyl)piperidin-1-yl)-3-fluorobenzamide]",Summary pXC50,8.95
